The values that follow come from patent EP4043435A1, “COMPOUND FOR DETECTING SENESCENT CELLS AND USE THEREOF” (Universitat Politècnica de València, priority 2019, dated 2021).

Data set [1] deals with 4T1 cells. Briefly: Confocal microscopy of fluorescence emission in control and Palbociclib-induced senescent cells. Format: cell-based, mouse. The method, then: Mouse mammary carcinoma 4T1 cells were cultured in DMEM supplemented with 10 % FBS and incubated in 20 % O2 and 5 % CO2 at 37 °C. The cells were incubated with 5 µM of Palbociclib in DMEM for one week to induce the senescence process. Subsequently, the cells were seeded in a flat clear-bottom 96-well plate with a density of 6000 cells for senescent cells and 4000 in the control cells (without prior treatment with Palbociclib). After 24 hours, the cells were incubated with different concentrations of probe Cy7-Gal and its fluorophore (Cy7), with confocal microscopy images being acquired after 30 min of incubation. A more than 10-fold increase in fluorescence emission is observed between senescent cells treated with probe Cy7-Gal and untreated senescent cells (self-fluorescence signal).

The test system of data set [2] is 4T1 cells. As to the kind of experiment: Viability assay (CellTiter-GLO Luminescent Cell Viability Assay) in control and senescent cells. Format: cell-based, mouse. Conditions: 4T1 control and senescent cells, different concentrations, 24 h of incubation. The method, then: Mouse mammary carcinoma 4T1 cells were cultured in DMEM supplemented with 10 % FBS and incubated in 20 % O2 and 5 % CO2 at 37 °C. To obtain cellular senescence, the cells were incubated with 5 µM of Palbociclib in DMEM for one week. Subsequently, the cells were seeded in a flat clear-bottom 96-well plate with a density of 6000 cells for senescent cells and 4000 in the control cells. After 24 h, the cells were treated with different concentrations of probe Cy7-Gal and its fluorophore (Cy7). Viability measurements were obtained after 24 h of incubation using CellTiter-GLO Luminescent Cell Viability Assay as a developer.
A general note: ATP-based viability assays read luminescence as a measure of living cells.

For another data set, the system named is 4T1 mammary tumours. As to the kind of experiment: In vivo detection of senescence through urine and bladder fluorescence (IVIS and fluorescence spectroscopy) in mice bearing mammary tumours. Also noted: species or system female BALB/cByJ mice.
The test system of the next data set is 4T1 cell tumours. As to the kind of experiment: Ex vivo IVIS fluorescence of extracted tumours and organs. Format: in vivo, female BALB/cByJ mice. The note with it: after sacrifice, different Palbociclib groups (FIG. 8d). The method, then: The mice were kept in the Prince Phillip Research Centre (Centro de Investigación Príncipe Felipe (CIPF)) following the recommendations of the Federation of European Laboratory Animal Science Associations (FELASA). All the processes applied on the animals were approved by the Technical Research Committee for Animal Welfare (Comité Técnico de Investigación para el bienestar de los animals, CElyBA). 4T1 mammary tumours were generated using 4T1 cells: The cells were cultured in DMEM supplemented with 10 % FBS and penicillin-streptomycin. To generate the formation of mammary tumours, the cells were trypsinised and counted with a LUNA ™ automated cell counter and injected by subcutaneous route into the left mammary of 28- to 34-week-old female BALB/CBY mice at a concentration of […] in a volume of 100 µl. The volume of the tumour was measured every two days with a gauge and calculated as V = (a x b2) / 2, wherein a is the longest and b is the shortest of two perpendicular diameters. […] The mice were monitored for 15 minutes post-injection of the probe in the IVIS® equipment following the accumulation of fluorophore Cy7 in the bladder after the hydrolysis of probe Cy7-Gal in the presence of senescent cells. […] The measurement of fluorescence in organs and tumours for the different groups of mice was performed with the IVIS technique.

Method for 4T1 mammary tumours: Urine fluorescence measurements were carried out by taking 5 µl of urine and diluting it in distilled water to 100 µl. The samples were obtained by exciting at 535 nm and collecting the absorption maximum at 566 nm.
The Palbociclib was administered through an oral probe daily for 7 days at different concentrations of 10 mg / kg, 50 mg / kg and 100 mg / kg dissolved in 50 mM sodium lactate at pH 5 in order to induce senescence. […] The mice were monitored for 15 minutes post-injection of the probe in the IVIS® equipment following the accumulation of fluorophore Cy7 in the bladder after the hydrolysis of probe Cy7-Gal in the presence of senescent cells.

Take `CC(=O)OC[C@H]1O[C@@H](Oc2ccc(/C=C/C3=[N+](CCCCS(=O)(=O)[O-])c4ccccc4C3(C)C)cc2/C=C/C2=[N+](CCCCS(=O)(=O)[O-])c3ccccc3C2(C)C)[C@H](OC(C)=O)[C@@H](OC(C)=O)[C@H]1OC(C)=O` [Cy7-Gal]: the “increase in fluorescence emission between senescent cells and control cells” value with 4T1 cells [1] (both incubated in the presence of probe, compared with the more than 10-fold increase over untreated senescent cells, 30 min of incubation) was “slightly higher”. Moreover, in the data set on 4T1 cells [1] (senescent 4T1 cells (5 µM Palbociclib, one week) treated with probe vs untreated senescent cells (self-fluorescence signal), 30 min of incubation), the “increase in fluorescence emission” value is “more than 10 fold”. The “selectivity of the probe for detecting senescent cells” value in the data set on 4T1 cells [1] (senescent vs control 4T1 cells) is recorded as “high selectivity”. Also, in the data set with 4T1 cells [2], the “toxicity (viability)” value is reported as “minimum toxicity”. Also, in the data set with 4T1 mammary tumours (female mice urinated after coming out from under anaesthesia, monitored 15 minutes post-injection), the “expulsion from the organism through urine” value is “expelled from the organism”. The “fluorescence emission of the urine samples vs degree of cellular senescence” value in the data set with 4T1 mammary tumours (mice with 4T1 tumours given Palbociclib 10, 50 or 100 mg/kg orally for 7 days, then probe 23.3 mg/ml in 100 µl, IVIS and fluorescence spectroscopy) was “correspondence between the fluorescence emission of the urine samples and the degree of cellular senescence”. For the same compound, the “fluorescence signal in tumours and most representative organs (IVIS)” value in the data set with 4T1 cell tumours was “a signal is only observed in senescent tumours, and no signal is observed in the different organs”.
